EP3828160A1, “TREPROSTINIL DERIVATIVE COMPOUNDS AND METHODS OF USING SAME” (Corsair Pharma, Inc., priority 2014, dated 2016)

Key:
Assay type in all cases: in vitro ADME
[1] = Human liver microsomal stability assay (Test 1); details: liver microsomes, 0.5 uM test compound, 37°C, up to 45 minutes, 0.5 mg microsomal protein, NADPH generating system, pH 7.4, read-out: Test 1 T1/2
Method: (§1) Four assays on compounds were carried out by the following methods with the results shown in Table I. • (Test 1) Human liver microsomal stability assay was conducted by incubating 0.5 uM test compounds at 37°C for up to 45 minutes in 50 mM of potassium phosphate buffer (pH 7.4) containing 0.5 mg of microsomal protein and 50 µL of NADPH generating system (7.8 mg of glucose 6-phosphate, 1.7 mg of NADPH and 6 U of glucose 6-phosphate dehydrogenase per mL in 2% w/v of sodium bicarbonate). At 0, 5, 15, 30 and 45 min., an aliquot was taken, quenched with internal standard containing stop solution. No co-factor controls at 45 minutes were also prepared. After incubation, the samples were analyzed by LC-MS/MS. Peak area ratios of analyte to internal standard were used to calculate the intrinsic clearance. The intrinsic clearance (CLint) was determined from the first order elimination constant by non-linear regression. Formation of the active drug Compound A over the time course was also monitored by LC-MS/MS analysis. • (Test 2) Human plasma stability assay was conducted by incubating 0.5 uM test compounds at 37°C for up to 120 minutes in heparinated human plasma. At 0, 5, 15, 30, 60 and 120 […] min., an aliquot was taken, quenched with internal standard containing stop solution. After incubation, the samples were analyzed by LC-MS/MS. Peak area ratios of analyte to internal standard were used to calculate the half-life. Formation of the active drug Compound A over the time course was also monitored by LC-MS/MS analysis. • (Test 3) Human skin homogenate stability assay was conducted in a similar way as the human liver microsomal stability assay, by incubating 0.5 uM test compounds at 37°C for up to 45 minutes in 50 mM of potassium phosphate buffer (pH 7.4) containing 0.5 mg of human skin homogenate protein and 50 µL of NADPH generating system (7.8 mg of glucose 6-phosphate, 1.7 mg of NADPH and 6 U of glucose 6-phosphate dehydrogenase per mL in 2% w/v of sodium bicarbonate). At 0, 5, 15, 30 and 45 min., an aliquot was taken, quenched with internal standard containing stop solution. No co-factor controls at 45 minutes were also prepared. After incubation, the samples were analyzed by LC-MS/MS. Peak area ratios of analyte to internal standard were used to calculate the intrinsic clearance. The intrinsic clearance (CLint) was determined from the first order elimination constant by non-linear regression. Formation of the active drug Compound A over the time course was also monitored by LC-MS/MS analysis. • (Test 4) Human hepatocyte stability assay was conducted by incubating 0.5 uM test compound at 37°C for up to 240 minutes. Cryopreserved human hepatocytes were obtained from Celsis IVT (Baltimore, Maryland). Cells were thawed according to vendor's instructions and were suspended in William's Medium E to 0.5 million cells/mL. Test compounds were spiked into the cell suspension to initiate the reactions. At 0, 10,30,60, 120 and 240 min., an aliquot was taken, quenched with internal standard containing stop solution. After incubation, the samples were analyzed by LC-MS/MS. Peak area ratios of analyte to internal standard were used to calculate the intrinsic clearance. The intrinsic clearance (CLint) was determined from the first order elimination constant by non-linear regression. Formation of the active drug Compound A over the time course was also monitored by LC-MS/MS analysis.

[2] = Human plasma stability assay (Test 2); details: 0.5 uM test compound, 37°C, up to 120 minutes, heparinated human plasma, read-out: Test 2 T1/2
Method: as §1

[3] = Human skin homogenate stability assay (Test 3); details: 0.5 uM test compound, 37°C, up to 45 minutes, 0.5 mg human skin homogenate protein, NADPH generating system, pH 7.4, read-out: Test 3 T1/2
Method: as §1

SMILES: CCCCCC(O)CCC1C(OC(=O)CC(C)C)CC2Cc3c(cccc3OCC(=O)OC)CC21 (stereo not shown) [Compound 23, 3-Methyl-butyric acid 1-(3-hydroxy-octyl)-5-methoxycarbonylmethoxy-2,3,3a,4,9,9a-hexahydro-1H-cyclopenta[b]naphthalen-2-yl ester]
- half-life at 0.5 uM [1]: < 15 min
- half-life at 0.5 uM [2]: > 60 min

SMILES: CCCCCC(O)CCC1C(OC(=O)CCCC)CC2Cc3c(cccc3OCC(=O)OC)CC21 (stereo not shown) [Compound 22, Pentanoic acid 1-(3-hydroxy-octyl)-5-methoxycarbonylmethoxy-2,3,3a,4,9,9a-hexahydro-1H-cyclopenta[b]naphthalen-2-yl ester]
- half-life at 0.5 uM [1]: < 15 min
- half-life at 0.5 uM [2]: > 60 min
- half-life at 0.5 uM [3]: > 60 min

SMILES: CCCCCC(O)CCC1C(O)CC2Cc3c(cccc3OCC(=O)NCC(F)(F)C(F)(F)F)CC21 (stereo not shown) [Compound 21, 2-[2-Hydroxy-1-(3-hydroxy-octyl)-2,3,3a,4,9,9a-hexahydro-1H-cyclopenta[b]naphthalen-5-yloxy]-N-(2,2,3,3,3-pentafluoro-propyl)-acetamide]
- half-life at 0.5 uM [1]: < 15 min
- half-life at 0.5 uM [2]: > 60 min

SMILES: CCCCCC(O)CCC1C(O)CC2Cc3c(cccc3OCC(=O)OCC3CC3)CC21 (stereo not shown) [Compound 1, [2-Hydroxy-1-(3-hydroxy-octyl)-2,3,3a,4,9,9a-hexahydro-1H-cyclopenta[b]naphthalen-5-yloxy]-acetic acid cyclopropylmethyl ester]
- half-life at 0.5 uM [1]: < 15 min
- half-life at 0.5 uM [2]: < 15 min

SMILES: CCCCCC(O)CCC1C(O)CC2Cc3c(cccc3OCC(=O)OC)CC21 (stereo not shown) [Compound 15, [2-Hydroxy-1-(3-hydroxy-octyl)-2,3,3a,4,9,9a-hexahydro-1H-cyclopenta[b]naphthalen-5-yloxy]-acetic acid methyl ester]
- half-life at 0.5 uM [1]: < 15 min
- half-life at 0.5 uM [2]: < 15 min
- half-life at 0.5 uM [3]: < 15 min

SMILES: CCCCCC(O)CCC1C(O)CC2Cc3c(cccc3OCC(=O)OC3CCOC3)CC21 (stereo not shown) [Compound 5, [2-Hydroxy-1-(3-hydroxy-octyl)-2,3,3a,4,9,9a-hexahydro-1H-cyclopenta[b]naphthalen-5-yloxy]-acetic acid tetrahydro-furan-3-yl ester]
- half-life at 0.5 uM [1]: < 15 min
- half-life at 0.5 uM [2]: < 15 min

SMILES: CCCCCC(O)CCC1C(O)CC2Cc3c(cccc3OCC(=O)OCCO)CC21 (stereo not shown) [Compound 9, [2-Hydroxy-1-(3-hydroxy-octyl)-2,3,3a,4,9,9a-hexahydro-1H-cyclopenta[b]naphthalen-5-yloxy]-acetic acid 2-hydroxy-ethyl ester]
- half-life at 0.5 uM [1]: < 15 min

SMILES: CCCCCC(O)CCC1C(OC(=O)OCC)CC2Cc3c(cccc3OCC(=O)OC)CC21 (stereo not shown) [Compound 25, [2-Ethoxycarbonyloxy-1-(3-hydroxy-octyl)-2,3,3a,4,9,9a-hexahydro-1H-cyclopenta[b]naphthalen-5-yloxy]-acetic acid methyl ester]
- half-life at 0.5 uM [1]: < 15 min
- half-life at 0.5 uM [2]: > 60 min
- half-life at 0.5 uM [3]: 31 to 60 min

SMILES: CCCCCC(O)CCC1C(O)CC2Cc3c(cccc3OCC(=O)OC(C)C(=O)OC)CC21 (stereo not shown) [Compound 6, 2-{2-[2-Hydroxy-1-(3-hydroxy-octyl)-2,3,3a,4,9,9a-hexahydro-1H-cyclopenta[b]naphthalen-5-yloxy]-acetoxy}-propionic acid methyl ester]
- half-life at 0.5 uM [1]: < 15 min
- half-life at 0.5 uM [2]: < 15 min

SMILES: CCCCCC(O)CCC1C(O)CC2Cc3c(cccc3OCC(=O)OCCOC)CC21 (stereo not shown) [Compound 10, [2-Hydroxy-1-(3-hydroxy-octyl)-2,3,3a,4,9,9a-hexahydro-1H-cyclopenta[b]naphthalen-5-yloxy]-acetic acid 2-methoxy-ethyl ester]
- half-life at 0.5 uM [1]: < 15 min

SMILES: CCCCCC(O)CCC1C(O)CC2Cc3c(cccc3OCC(=O)OC(C)(C)C)CC21 (stereo not shown) [Compound 28, [2-Hydroxy-1-(3-hydroxy-octyl)-2,3,3a,4,9,9a-hexahydro-1H-cyclopenta[b]naphthalen-5-yloxy]-acetic acid tert-butyl ester]
- half-life at 0.5 uM [1]: < 15 min
- half-life at 0.5 uM [2]: 15 to 30 min

SMILES: CCCCCC(O)CCC1C(O)CC2Cc3c(cccc3OCC(=O)OC3CC4CCC3C4)CC21 (stereo not shown) [Compound 19, [2-Hydroxy-1-(3-hydroxy-octyl)-2,3,3a,4,9,9a-hexahydro-1H-cyclopenta[b]naphthalen-5-yloxy]-acetic acid bicyclo[2.2.1]hept-2-yl ester]
- half-life at 0.5 uM [1]: < 15 min
- half-life at 0.5 uM [2]: 31 to 60 min
- half-life at 0.5 uM [3]: 15 to 30 min

SMILES: CCCCCC(O)CCC1C(O)CC2Cc3c(cccc3OCC(=O)OC(C)C(C)(C)C)CC21 (stereo not shown) [Compound 18, [2-Hydroxy-1-(3-hydroxy-octyl)-2,3,3a,4,9,9a-hexahydro-1H-cyclopenta[b]naphthalen-5-yloxy]-acetic acid 1,2,2-trimethyl-propyl ester]
- half-life at 0.5 uM [1]: < 15 min
- half-life at 0.5 uM [2]: > 60 min
- half-life at 0.5 uM [3]: > 60 min

SMILES: CCCCCC(O)CCC1C(OC(=O)C2CC2)CC2Cc3c(cccc3OCC(=O)OC)CC21 (stereo not shown) [Compound 24, Cyclopropanecarboxylic acid 1-(3-hydroxy-octyl)-5-methoxycarbonylmethoxy-2,3,3a,4,9,9a-hexahydro-1H-cyclopenta[b]naphthalen-2-yl ester]
- half-life at 0.5 uM [1]: < 15 min
- half-life at 0.5 uM [2]: > 60 min

SMILES: CCCCCC(O)CCC1C(O)CC2Cc3c(cccc3OCC(=O)NCC(=O)OC)CC21 (stereo not shown) [Compound 12, {2-[2-Hydroxy-1-(3-hydroxy-octyl)-2,3,3a,4,9,9a-hexahydro-1H-cyclopenta[b]naphthalen-5-yloxy]-acetylamino}-acetic acid methyl ester]
- half-life at 0.5 uM [1]: < 15 min
- half-life at 0.5 uM [2]: > 60 min

SMILES: CCCCCC(O)CCC1C(O)CC2Cc3c(cccc3OCC(=O)OC(C)C)CC21 (stereo not shown) [Compound 20, [2-Hydroxy-1-(3-hydroxy-octyl)-2,3,3a,4,9,9a-hexahydro-1H-cyclopenta[b]naphthalen-5-yloxy]-acetic acid isopropyl ester]
- half-life at 0.5 uM [1]: < 15 min
- half-life at 0.5 uM [2]: 31 to 60 min
- half-life at 0.5 uM [3]: < 15 min

SMILES: CCCCCC(O)CCC1C(O)CC2Cc3c(cccc3OCC(=O)OCC(C)(C)C)CC21 (stereo not shown) [Compound 16, [2-Hydroxy-1-(3-hydroxy-octyl)-2,3,3a,4,9,9a-hexahydro-1H-cyclopenta[b]naphthalen-5-yloxy]-acetic acid 2,2-dimethyl-propyl ester]
- half-life at 0.5 uM [1]: < 15 min
- half-life at 0.5 uM [2]: 15 to 30 min
- half-life at 0.5 uM [3]: 15 to 30 min

SMILES: CCCCCC(O)CCC1C(O)CC2Cc3c(cccc3OCC(=O)OCCCF)CC21 (stereo not shown) [Compound 4, [2-Hydroxy-1-(3-hydroxy-octyl)-2,3,3a,4,9,9a-hexahydro-1H-cyclopenta[b]naphthalen-5-yloxy]-acetic acid 3-fluoro-propyl ester]
- half-life at 0.5 uM [1]: < 15 min
- half-life at 0.5 uM [2]: < 15 min

SMILES: CCCCCC(O)CCC1C(O)CC2Cc3c(cccc3OCC(=O)NCCCO)CC21 (stereo not shown) [Compound 11, 2-[2-Hydroxy-1-(3-hydroxy-octyl)-2,3,3a,4,9,9a-hexahydro-1H-cyclopenta[b]naphthalen-5-yloxy]-N-(3-hydroxy-propyl)-acetamide]
- half-life at 0.5 uM [1]: < 15 min
- half-life at 0.5 uM [2]: > 60 min

SMILES: CCCCCC(O)CCC1C(O)CC2Cc3c(cccc3OCC(=O)NCCN)CC21 (stereo not shown) [Compound 8, N-(2-Amino-ethyl)-2-[2-hydroxy-1-(3-hydroxy-octyl)-2,3,3a,4,9,9a-hexahydro-1H-cyclopenta[b]naphthalen-5-yloxy]-acetamide]
- half-life at 0.5 uM [1]: 31 to 60 min

SMILES: CCCCCC(O)CCC1C(OC(=O)CCC(=O)OCC)CC2Cc3c(cccc3OCC(=O)OC)CC21 (stereo not shown) [Compound 27, Succinic acid ethyl ester 1-(3-hydroxy-octyl)-5-methoxycarbonylmethoxy-2,3,3a,4,9,9a-hexahydro-1H-cyclopenta[b]naphthalen-2-yl ester]
- half-life at 0.5 uM [1]: < 15 min
- half-life at 0.5 uM [2]: > 60 min
